# Laboratory results as given in patent publication US20170066795A1, “SOLID PRODRUG FORMS OF 2'-CHLORO-2'-METHYL URIDINE FOR HCV” (IDENIX PHARMACEUTICALS LLC, priority 2014, published 2017).
# Legend:
# Genotype 1 HCV = assay: Example 3 Part I: Compound I QD x 7 days in treatment-naïve Genotype 1 HCV-infected subjects, viral load (HCV RNA); assay type: in vivo; conditions: 300 mg/day for 7 days
# Description: (§1) This part was a randomized, double-blind, placebo-controlled, parallel group study in treatment-naïve, Genotype 1 HCV-infected subjects. Thirty (30) subjects were randomized across the treatment arms specified below.
# (§2) Dosing, sampling, and analyses for Parts I and II were made according to Tables A and B.
# Compound I was provided as size 0, white, hard hydroxypropyl methylcellulose (HPMC) capsules for oral administration at 5 mg, 25 mg and 50 mg strengths. The same powder blend containing 33.3% weight/weight (w/w) Compound I, a diluent, and a disintegrant is used to fill the capsules for all dose strengths. Matching placebo capsules will also be provided. Storage conditions will be provided on the study drug container label.
# Dosing occurred between approximately 08:00 AM and 10:00 AM on each dosing day. Water was permitted ad libitum except for 1 hour before and after dosing. Dosing was immediately followed by administration of 240 mL (8 oz.) of water. Meals and beverages served within 24 hours prior to and post dosing were xanthine-free and caffeine-free. Grapefruit and grapefruit juice were not allowed within 7 days before reporting to the clinic on Day −1 and through the end of the study.
# [1] = Example 4 Group B: safety (adverse events) in genotype 1 HCV-infected subjects; assay type: in vivo, human
# Description: Five sequential cohorts of 3 HCV-infected subjects (HCV) per cohort received under fasted conditions open-label Compound I at single ascending doses of 10, 25, 50, 150, and 300 mg (below, “Group B”).
# For Groups A and B, dosing occurred between approximately 08:00 AM and 10:00 AM on each dosing day. Dosing was fasted for all subjects in Groups A and B. For fasted dosing, subjects observed a fasting period of approximately 10 hours prior to each dose and for an additional 4 hours post-dose.
# Safety measurements included clinical history, routine laboratory evaluation, physical examination, 12-lead ECG, vital signs, adverse event (AE) assessment.
# [2] = Example 3: tolerability (clinical and laboratory abnormalities) in HCV-infected subjects; assay type: in vivo, human; conditions: 50-300 mg QD x 7 days
# Description: as §1
# This part were a randomized, open-label, parallel group study in treatment-naïve, Genotype 2, 3, 4, 5 and 6 HCV-infected subjects. Thirty (30) subjects were randomized across the treatment arms specified below.
# as §2
smiles,measurement,setting,value
CC(C)OC(=O)[C@@H](C)N[P@@](=O)(OC[C@H]1O[C@@H](n2ccc(=O)[nH]c2=O)[C@](C)(Cl)[C@@H]1O)Oc1ccccc1 [Compound I],response in genotype 1a versus genotype 1b HCV infection,Genotype 1 HCV,similar
same,mean maximal viral load reduction,Genotype 1 HCV; 8 genotype 1 HCV-infected patients,4.2 logs
same,Adverse event: Constipation,[1]; 10 mg single dose (n = 3),"0 n, %"
same,Adverse event: Diarrhea,[1]; 10 mg single dose (n = 3),"0 n, %"
same,Adverse event: Dry mouth,[1]; 10 mg single dose (n = 3),"0 n, %"
same,Adverse event: Dry skin,[1]; 10 mg single dose (n = 3),"0 n, %"
same,Adverse event: Dysuria,[1]; 10 mg single dose (n = 3),"0 n, %"
same,Adverse event: Fatigue,[1]; 10 mg single dose (n = 3),"0 n, %"
same,Adverse event: Feces hard,[1]; 10 mg single dose (n = 3),"0 n, %"
same,Adverse event: Flatulence,[1]; 10 mg single dose (n = 3),"0 n, %"
same,Adverse event: Headache,[1]; 10 mg single dose (n = 3),"0 n, %"
same,Adverse event: Myalgia,[1]; 10 mg single dose (n = 3),"1 (33.3) n, %"
same,Adverse event: Neck pain,[1]; 10 mg single dose (n = 3),"0 n, %"
same,Adverse event: Pruritus,[1]; 10 mg single dose (n = 3),"0 n, %"
same,Adverse event: Pruritus generalized,[1]; 10 mg single dose (n = 3),"0 n, %"
same,Adverse event: Vessel puncture site bruise,[1]; 10 mg single dose (n = 3),"0 n, %"
same,Subjects with AE,[1]; 10 mg single dose (n = 3),"1 (33.3) n, %"
same,Adverse event: Constipation,[1]; 25 mg single dose (n = 3),"1 (33.3) n, %"
same,Adverse event: Diarrhea,[1]; 25 mg single dose (n = 3),"0 n, %"
same,Adverse event: Dry mouth,[1]; 25 mg single dose (n = 3),"0 n, %"
same,Adverse event: Dry skin,[1]; 25 mg single dose (n = 3),"0 n, %"
same,Adverse event: Dysuria,[1]; 25 mg single dose (n = 3),"0 n, %"
same,Adverse event: Fatigue,[1]; 25 mg single dose (n = 3),"1 (33.3) n, %"
same,Adverse event: Feces hard,[1]; 25 mg single dose (n = 3),"0 n, %"
same,Adverse event: Flatulence,[1]; 25 mg single dose (n = 3),"1 (33.3) n, %"
same,Adverse event: Headache,[1]; 25 mg single dose (n = 3),"1 (33.3) n, %"
same,Adverse event: Myalgia,[1]; 25 mg single dose (n = 3),"0 n, %"
same,Adverse event: Neck pain,[1]; 25 mg single dose (n = 3),"1 (33.3) n, %"
same,Adverse event: Pruritus,[1]; 25 mg single dose (n = 3),"0 n, %"
same,Adverse event: Pruritus generalized,[1]; 25 mg single dose (n = 3),"0 n, %"
same,Adverse event: Vessel puncture site bruise,[1]; 25 mg single dose (n = 3),"0 n, %"
same,Subjects with AE,[1]; 25 mg single dose (n = 3),"2 (66.7) n, %"
same,Adverse event: Constipation,[1]; 50 mg single dose (n = 3),"0 n, %"
same,Adverse event: Diarrhea,[1]; 50 mg single dose (n = 3),"0 n, %"
same,Adverse event: Dry mouth,[1]; 50 mg single dose (n = 3),"0 n, %"
same,Adverse event: Dry skin,[1]; 50 mg single dose (n = 3),"0 n, %"
same,Adverse event: Dysuria,[1]; 50 mg single dose (n = 3),"1 (33.3) n, %"
same,Adverse event: Fatigue,[1]; 50 mg single dose (n = 3),"0 n, %"
same,Adverse event: Feces hard,[1]; 50 mg single dose (n = 3),"0 n, %"
same,Adverse event: Flatulence,[1]; 50 mg single dose (n = 3),"0 n, %"
same,Adverse event: Headache,[1]; 50 mg single dose (n = 3),"0 n, %"
same,Adverse event: Myalgia,[1]; 50 mg single dose (n = 3),"0 n, %"
same,Adverse event: Neck pain,[1]; 50 mg single dose (n = 3),"0 n, %"
same,Adverse event: Pruritus,[1]; 50 mg single dose (n = 3),"0 n, %"
same,Adverse event: Pruritus generalized,[1]; 50 mg single dose (n = 3),"0 n, %"
same,Adverse event: Vessel puncture site bruise,[1]; 50 mg single dose (n = 3),"0 n, %"
same,Subjects with AE,[1]; 50 mg single dose (n = 3),"1 (33.3) n, %"
same,Adverse event: Constipation,[1]; 150 mg single dose (n = 3),"0 n, %"
same,Adverse event: Diarrhea,[1]; 150 mg single dose (n = 3),"0 n, %"
same,Adverse event: Dry mouth,[1]; 150 mg single dose (n = 3),"1 (33.3) n, %"
same,Adverse event: Dry skin,[1]; 150 mg single dose (n = 3),"1 (33.3) n, %"
same,Adverse event: Dysuria,[1]; 150 mg single dose (n = 3),"0 n, %"
same,Adverse event: Fatigue,[1]; 150 mg single dose (n = 3),"1 (33.3) n, %"
same,Adverse event: Feces hard,[1]; 150 mg single dose (n = 3),"0 n, %"
same,Adverse event: Flatulence,[1]; 150 mg single dose (n = 3),"0 n, %"
same,Adverse event: Headache,[1]; 150 mg single dose (n = 3),"0 n, %"
same,Adverse event: Myalgia,[1]; 150 mg single dose (n = 3),"0 n, %"
same,Adverse event: Neck pain,[1]; 150 mg single dose (n = 3),"0 n, %"
same,Adverse event: Pruritus,[1]; 150 mg single dose (n = 3),"1 (33.3) n, %"
same,Adverse event: Pruritus generalized,[1]; 150 mg single dose (n = 3),"1 (33.3) n, %"
same,Adverse event: Vessel puncture site bruise,[1]; 150 mg single dose (n = 3),"0 n, %"
same,Subjects with AE,[1]; 150 mg single dose (n = 3),"2 (66.7) n, %"
same,Adverse event: Constipation,[1]; 300 mg single dose (n = 3),"0 n, %"
same,Adverse event: Diarrhea,[1]; 300 mg single dose (n = 3),"1 (33.3) n, %"
same,Adverse event: Dry mouth,[1]; 300 mg single dose (n = 3),"0 n, %"
same,Adverse event: Dry skin,[1]; 300 mg single dose (n = 3),"0 n, %"
same,Adverse event: Dysuria,[1]; 300 mg single dose (n = 3),"0 n, %"
same,Adverse event: Fatigue,[1]; 300 mg single dose (n = 3),"0 n, %"
same,Adverse event: Feces hard,[1]; 300 mg single dose (n = 3),"1 (33.3) n, %"
same,Adverse event: Flatulence,[1]; 300 mg single dose (n = 3),"0 n, %"
same,Adverse event: Headache,[1]; 300 mg single dose (n = 3),"0 n, %"
same,Adverse event: Myalgia,[1]; 300 mg single dose (n = 3),"0 n, %"
same,Adverse event: Neck pain,[1]; 300 mg single dose (n = 3),"0 n, %"
same,Adverse event: Pruritus,[1]; 300 mg single dose (n = 3),"0 n, %"
same,Adverse event: Pruritus generalized,[1]; 300 mg single dose (n = 3),"0 n, %"
same,Adverse event: Vessel puncture site bruise,[1]; 300 mg single dose (n = 3),"1 (33.3) n, %"
same,Subjects with AE,[1]; 300 mg single dose (n = 3),"2 (66.7) n, %"
same,tolerability,[2],well-tolerated with no observed patterns of clinical or laboratory abnormalities
